From US12509451B2, “Heteroaryl amide inhibitors of CD38” (NAPA THERAPEUTICS LTD., priority 2020, dated 2025)

What was measured:
[1] = biological target: T1, CD38 NAD+ hydrolase activity in NH7-dCas9 cells (Jurkat clone) (Homo sapiens, UniProt P28907); test: Fluorescence-based NAD+ hydrolase activity assay with human T cell line NH7-dCas9 cells-Jurkat clone (Assay 1); conditions: read-out: Assay 1 Arithmetic mean IC50
T1 construct: The assay utilized CD38 expressing NH7-dCas9 cells (Jurkat clone); host or cells: NH7-dCas9 cells (Jurkat clone)
T1 sequence (P28907 1-300): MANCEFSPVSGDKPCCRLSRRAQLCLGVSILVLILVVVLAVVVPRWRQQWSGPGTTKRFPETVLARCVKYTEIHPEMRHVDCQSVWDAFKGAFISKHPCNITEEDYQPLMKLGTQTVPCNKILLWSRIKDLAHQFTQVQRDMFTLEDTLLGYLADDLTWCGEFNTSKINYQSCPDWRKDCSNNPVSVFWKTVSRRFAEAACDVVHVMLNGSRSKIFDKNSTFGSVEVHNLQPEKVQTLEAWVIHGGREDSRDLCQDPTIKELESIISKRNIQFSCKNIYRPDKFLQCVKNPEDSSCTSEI
Description: For the modified assay, the performance validation criteria of the assay as a High Throughput Screening (HTS): Z-factor within the plate was greater than 0.89 (optimal HTS z-factor >0.5) and the Intra-plate, inter-plate and day to day variability (CV) was less than 20%.
NAD+ hydrolase activity of a human T cell line treated with test compounds was measured using a fluorescence-based assay. NH7-dCas9 cells (Jurkat clone) were provided by the Weissman Lab (UCSF 1700 4th St., Byers Hall, Room 403B, San Francisco, CA 94158-2330). Briefly, cells were centrifuged, resuspended in 44 μl PBS/10^6 cells and plated in a 96 well black plate (CORNING) at a density of 1×10^6 per well.
(§1) Each test compound was received in a powder state and dissolved in DMSO as a 25 mM stock solution. Each test compound was serially diluted in order to generate a dose-response curve. The dilution series of each test compound in DMSO was prepared at 50 times the concentrations to be assayed. Each test compound was diluted to generate a 5-fold dilution series of 8 concentrations from 20 μM to 0.256 nM in order to assay 8 final concentrations ranging from 400 nM to 25.6 pM. One μl of the 50× concentration compound series was added to each well of the plate containing 1×10^6 cells in PBS.
Each plate had the following intra plate controls: 3 wells containing cells treated with vehicle only (DMSO), 3 wells of cells treated with the reference compound 78c at a final concentration of 50 nM and 2 wells containing only PBS (used as a background value).
The reaction was started by adding nicotinamide 1,N^6-etheno-adenine dinucleotide (Sigma Aldrich) to reach a final concentration of 80 µM. The samples were excited at 321-15 nm, and the emission of fluorescence was measured at 410-20 nm at 37° C. every minute for 1 hr in a Clariostar® microplate reader (BMG LABTECH). NAD+ hydrolase activity was calculated as the slope of the linear portion of the fluorescence-time curve using the MARS data analysis software (BMG LABTECH). The data were uploaded in the Collaborative Drug Design (CDD) Software and for each compound the IC50 was calculated by the software. Each compound was tested in 3 independent experiments on 3 separate days to establish the reproducibility of the results. For each plate, the z-factor was also calculated as a plate quality using the CDD software.

[2] = biological target: T2, recombinant human CD38 Protein (Homo sapiens, UniProt P28907); test: Fluorescence-based NAD+ cyclase activity assay with human recombinant CD38 protein (Assay 2); format: biochemical; conditions: read-out: Assay 2 Arithmetic mean IC50
T2 construct: purchased R&D System
T2 sequence (P28907 1-300): T1 sequence (P28907 1-300)
Description: This protocol was modified from the de Oliveira et al., 2018 reference, supra.
NAD+ cyclase activity of the human recombinant CD38 protein treated with test compounds was measured using a fluorescence-based assay. Briefly, recombinant human CD38 Protein (R&D System) was resuspended in 44 μl/well of Sucrose-Tris Buffer (Sucrose 0.25 M, Tris pH 7.4 40 mM) and plated in a 96-well black plate (CORNING) at a density of 125 ng/well.
as §1, with “100” for “20”, “32” for “0.256”, “2 μM” for “400 nM”, “0.64 nM.” for “25.6 pM.”, “125 ng of protein” for “1×10^6 cells”, “Sucrose-Tris buffer.” for “PBS.”
The reaction was started adding nicotinamide guanine dinucleotide (NGD+) (Sigma Aldrich) to reach a final concentration of 150 µM. The samples were excited at 337-15 nm, and the emission of fluorescence was measured at 442-20 nm at 37° C. every minute for 1 hr in a Clariostar microplate reader (BMG LABTECH). NAD+ cyclase activity was calculated as the slope of the linear portion of the fluorescence-time curve using the MARS data analysis software (BMG LABTECH). The data were uploaded in the Collaborative Drug Design (CDD) Software, and for each compound the IC50 was calculated by the software. For each plate, the z-factor was also calculated as a plate quality using the CDD software.

Compound | IC50 [1] [nM] | IC50 [2] [nM]
Cn1cncc1-c1cccc(C(=O)Nc2cccnc2)n1 [Compound 42, 6-(1-methyl-1H-imidazol-5-yl)-N-(pyridin-3-yl)picolinamide] | 1 to 50 | 1000 to 10000
Cc1cc(NC(=O)c2cccc(-n3ccnc3)n2)cc(C)n1 [Compound 7] | < 1 | 1000 to 10000
COc1ccc(NC(=O)c2cccc(-n3ccnc3)n2)cn1 [Compound 18] | 1 to 50 | 1000 to 10000
O=C(Nc1ccncn1)c1cccc(-n2ccnc2)n1 [Compound 24] | 1 to 50 | 1000 to 10000
Cc1ccc(NC(=O)c2cccc(-n3ccnc3)n2)cn1 [Compound 14] | 1 to 50 | 1000 to 10000
Cc1cc(NC(=O)c2cccc(-n3ccnc3)n2)ccn1 [Compound 11] | 1 to 50 | 51 to 1000
CC1(Oc2cc(C(=O)Nc3ccnc(C(F)(F)F)c3)nc(-n3ccnc3)c2)COC1 [Compound 34, 6-(1H-imidazol-1-yl)-4-((3-methyloxetan-3-yl)oxy)-N-(2-(trifluoromethyl)pyridin-4-yl)picolinamide] | – | 51 to 1000
CC(=O)Nc1ccc(NC(=O)c2cccc(-n3ccnc3)n2)cn1 [Compound 16] | 1 to 50 | 51 to 1000
O=C(Nc1ccnc(C(F)(F)F)c1)c1cccc(-n2ccnc2)n1 [Compound 28] | < 1 | 1000 to 10000
O=C(Nc1cccnc1)c1ccc(F)c(-n2ccnc2)n1 [Compound 61] | 1 to 50 | 1000 to 10000
O=C(Nc1ccc(C(F)(F)F)nc1)c1cccc(-n2ccnc2)n1 [Compound 9] | 1 to 50 | 51 to 1000
O=C(Nc1cccnc1)c1cccc(-n2ccnc2)n1 [Compound 20] | 1 to 50 | 1000 to 10000
CC(=O)N(C)c1ccc(NC(=O)c2cccc(-n3ccnc3)n2)cn1 [Compound 15] | 1 to 50 | 1000 to 10000
COC(=O)c1ccc(NC(=O)c2cccc(-n3ccnc3)n2)cn1 [Compound 27] | 1 to 50 | 51 to 1000
O=C(Nc1ccc(F)nc1)c1cccc(-n2ccnc2)n1 [Compound 22] | 1 to 50 | 1000 to 10000
Cn1ccnc1-c1cccc(C(=O)Nc2ccc(C(F)(F)F)nc2)n1 [Compound 47] | < 1 | 51 to 1000
O=C(Nc1ccnc(C(F)(F)F)c1)c1cc(OCC2CCOCC2)cc(-n2ccnc2)n1 [Compound 30, 6-(1H-imidazol-1-yl)-4-((tetrahydro-2H-pyran-4-yl)methoxy)-N-(2-(trifluoromethyl)pyridin-4-yl)picolinamide] | < 1 | 51 to 1000
Cc1cc(C(=O)Nc2ccncc2)nc(-c2nccn2C)c1 [Compound 45] | < 1 | 51 to 1000
O=C(Nc1cccnc1)c1nc(-n2ccnc2)ccc1F [Compound 62] | 1 to 50 | 1000 to 10000
Cn1ccnc1-c1cccc(C(=O)Nc2cccnc2)n1 [Compound 48] | 1 to 50 | 1000 to 10000

Results, then the compound that gave them:

IC50 [1] [nM] | IC50 [2] [nM] | Compound
< 1 | 51 to 1000 | Cc1cc(C(=O)Nc2ccnc(C(N)=O)c2)nc(-n2ccnc2)c1 [Compound 55]
1 to 50 | 51 to 1000 | Cc1ccc(-n2ccnc2)nc1C(=O)Nc1cccnc1 [Compound 59, 6-(1H-imidazol-1-yl)-3-methyl-N-(pyridin-3-yl)picolinamide]
< 1 | 1 to 50 | Cc1cc(C(=O)Nc2ccc(C(N)=O)nc2)nc(-n2ccnc2)c1 [Compound 54, N-(6-carbamoylpyridin-3-yl)-6-(1H-imidazol-1-yl)-4-methylpicolinamide]
< 1 | 51 to 1000 | CNC(=O)c1cc(NC(=O)c2cc(C)cc(-n3ccnc3)n2)ccn1 [Compound 56]
< 1 | 51 to 1000 | CN(C)CCOc1cc(C(=O)Nc2ccnc(C(F)(F)F)c2)nc(-n2ccnc2)c1 [Compound 33]
< 1 | 1 to 50 | NC(=O)c1ccc(NC(=O)c2cccc(-n3ccnc3)n2)cn1 [Compound 3]
< 1 | 1 to 50 | CNC(=O)c1ccc(NC(=O)c2cc(C)cc(-n3ccnc3)n2)cn1 [Compound 57]
– | 51 to 1000 | O=C(Nc1ccnc(C(F)(F)F)c1)c1cc(C2CC2)nc(-n2ccnc2)n1 [Compound 51, 6-cyclopropyl-2-(1H-imidazol-1-yl)-N-(2-(trifluoromethyl)pyridin-4-yl)pyrimidine-4-carboxamide]
< 1 | 51 to 1000 | COc1cc(C(=O)Nc2ccnc(C(F)(F)F)c2)nc(-n2ccnc2)c1 [Compound 35, 6-(1H-imidazol-1-yl)-4-methoxy-N-(2-(trifluoromethyl)pyridin-4-yl)picolinamide]
< 1 | 51 to 1000 | Cc1cc(C(=O)Nc2cccnc2)nc(-n2ccnc2)c1 [Compound 53]
1 to 50 | 51 to 1000 | O=C(Nc1ccncc1)c1cccc(-n2ccnc2)n1 [Compound 13]
< 1 | 51 to 1000 | COc1cc(C(=O)Nc2ccnc(C(F)(F)F)c2)nc(-n2ccnc2)n1 [Compound 37, 2-(1H-imidazol-1-yl)-6-methoxy-N-(2-(trifluoromethyl)pyridin-4-yl)pyrimidine-4-carboxamide]
< 1 | 51 to 1000 | Cn1cncc1-c1cccc(C(=O)Nc2ccc(C(F)(F)F)nc2)n1 [Compound 43]
< 1 | 51 to 1000 | O=C(Nc1ccnc(C(F)(F)F)c1)c1cc(OCc2ccccc2)cc(-n2ccnc2)n1 [Compound 29, 4-(benzyloxy)-6-(1H-imidazol-1-yl)-N-[2-(trifluoromethyl)pyridin-4-yl]pyridine-2-carboxamide]
< 1 | 1 to 50 | Cc1cc(C(=O)Nc2ccncc2)nc(-n2ccnc2)c1 [Compound 52, 6-(1H-imidazol-1-yl)-4-methyl-N-(pyridin-4-yl)picolinamide]
– | 51 to 1000 | O=C(Nc1ccnc(C(F)(F)F)c1)c1cc(OC2CC2)nc(-n2ccnc2)n1 [Compound 40]
< 1 | 51 to 1000 | Nc1cc(C(=O)Nc2cccnc2)nc(-n2ccnc2)c1 [Compound 67]
< 1 | 51 to 1000 | O=C(Nc1ccnc(C(F)(F)F)c1)c1cc(OC2CC2)cc(-n2ccnc2)n1 [Compound 32, 4-cyclopropoxy-6-(1H-imidazol-1-yl)-N-(2-(trifluoromethyl)pyridin-4-yl)picolinamide]
< 1 | 51 to 1000 | CCOc1cc(C(=O)Nc2ccnc(C(F)(F)F)c2)nc(-n2ccnc2)n1 [Compound 38]
< 1 | 1 to 50 | CNC(=O)c1ccc(NC(=O)c2cccc(-n3ccnc3)n2)cn1 [Compound 2]
< 1 | 1 to 50 | Cc1cc(C(=O)Nc2cccnc2)nc(-n2ccnc2)n1 [Compound 49, 2-(1H-imidazol-1-yl)-6-methyl-N-(pyridin-3-yl)pyrimidine-4-carboxamide]
